Measurements reported in ChEMBL document CHEMBL1201861, “Genomics of Drug Sensitity in Cancer screening data, Wellcome Trust Sanger Institute”.

Legend:
SU-DHL-1 = experiment: SANGER: Inhibition of human SU-DHL-1 cell growth in a cell viability assay.; format: functional, cell-based; details: Homo sapiens, SU-DHL-1
CAL-51 = experiment: cells; format: functional, cell-based, Homo sapiens; details: Homo sapiens, CAL-51;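 further: human CAL-51 cell line, growth inhibition read out via a cell viability assay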
Description: SANGER: Inhibition of human CAL-51 cell growth in a cell viability assay.

LN-405 = experiment: cells; format: functional, cell-based, Homo sapiens; details: Homo sapiens, LN-405
Description: SANGER: Inhibition of human LN-405 cell growth in a cell viability assay.

Ca9-22 = experiment: cells; format: functional, cell-based, Homo sapiens; details: Homo sapiens, Ca9-22;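 further: growth inhibition of Ca9-22 cells, read out with a cell viability assay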
Description: SANGER: Inhibition of human Ca9-22 cell growth in a cell viability assay.

CAL-39 = experiment: cells; format: functional, cell-based, Homo sapiens; details: Homo sapiens, CAL-39;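 further: cell viability assay measuring growth inhibition of CAL-39 cells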
Description: SANGER: Inhibition of human CAL-39 cell growth in a cell viability assay.

SW756 = experiment: cells; format: functional, cell-based, Homo sapiens; details: Homo sapiens, SW756;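 further: growth inhibition of human SW756 cells, read out with a cell viability assay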
Description: SANGER: Inhibition of human SW756 cell growth in a cell viability assay.

HCC38 = experiment: cells; format: functional, cell-based, Homo sapiens; details: Homo sapiens, HCC38;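 further: cell viability assay on the human HCC38 cell line, with IC50 marking the concentration that inhibits cell growth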
Description: SANGER: Inhibition of human HCC38 cell growth in a cell viability assay.

PANC-03-27 = experiment: cells; format: functional, cell-based, Homo sapiens; details: Homo sapiens, PANC-03-27
Description: SANGER: Inhibition of human PANC-03-27 cell growth in a cell viability assay.

SW780 = experiment: cells; format: functional, cell-based, Homo sapiens; details: Homo sapiens, SW780;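 further: growth inhibition of the cells, read out with a cell viability assay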
Description: SANGER: Inhibition of human SW780 cell growth in a cell viability assay.

NCI-H1993 = experiment: cells; format: functional, cell-based, Homo sapiens; details: Homo sapiens, NCI-H1993;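 further: growth inhibition of the cancer cell line, assessed with a cell viability assay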
Description: SANGER: Inhibition of human NCI-H1993 cell growth in a cell viability assay.

CaR-1 = experiment: cells; format: functional, cell-based, Homo sapiens; details: Homo sapiens, CaR-1;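 further: growth inhibition of human CaR-1 cancer cells, read out with a cell viability assay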
Description: SANGER: Inhibition of human CaR-1 cell growth in a cell viability assay.

NB1 = experiment: cells; format: functional, cell-based, Homo sapiens; details: Homo sapiens, NB1;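 further: reduction of NB1 cell proliferation, read out with a viability assay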
Description: SANGER: Inhibition of human NB1 cell growth in a cell viability assay.

UACC-62 = experiment: cells; format: functional, cell-based, Homo sapiens; details: Homo sapiens, UACC-62;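 further: growth inhibition of human UACC-62 cells, read out by a cell viability assay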
Description: SANGER: Inhibition of human UACC-62 cell growth in a cell viability assay.

639-V = experiment: cells; format: functional, cell-based, Homo sapiens; details: Homo sapiens, 639-V;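 further: growth inhibition of 639-V cells, read out with a cell viability assay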
Description: SANGER: Inhibition of human 639-V cell growth in a cell viability assay.

NCI-H64 = experiment: cells; format: functional, cell-based, Homo sapiens; details: Homo sapiens, NCI-H64;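 further: growth inhibition of NCI-H64 cells, read out with a cell viability assay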
Description: SANGER: Inhibition of human NCI-H64 cell growth in a cell viability assay.

H4 = experiment: cells; format: functional, cell-based, Homo sapiens; details: Homo sapiens, H4
Description: SANGER: Inhibition of human H4 cell growth in a cell viability assay.

GMS-10 = experiment: cells; format: functional, cell-based, Homo sapiens; details: Homo sapiens, GMS-10;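 further: growth inhibition of GMS-10 cells, read out as cell viability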
Description: SANGER: Inhibition of human GMS-10 cell growth in a cell viability assay.

HN = experiment: cells; format: functional, cell-based, Homo sapiens; details: Homo sapiens, HN
Description: SANGER: Inhibition of human HN cell growth in a cell viability assay.

HTC-C3 = experiment: cells; format: functional, cell-based, Homo sapiens; details: Homo sapiens, HTC-C3;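 further: inhibition of cell growth, read out with a cell viability assay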
Description: SANGER: Inhibition of human HTC-C3 cell growth in a cell viability assay.

CAL-62 = experiment: cells; format: functional, cell-based, Homo sapiens; details: Homo sapiens, CAL-62;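 further: growth inhibition of CAL-62 cells, read out with a cell viability assay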
Description: SANGER: Inhibition of human CAL-62 cell growth in a cell viability assay.

NCI-H1793 = experiment: cells; format: functional, cell-based, Homo sapiens; details: Homo sapiens, NCI-H1793;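 further: cell growth inhibition, read out by a cell viability assay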
Description: SANGER: Inhibition of human NCI-H1793 cell growth in a cell viability assay.

SAS = experiment: cells; format: functional, cell-based, Homo sapiens; details: Homo sapiens, SAS;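 further: growth inhibition of SAS cells, read out with a cell viability assay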
Description: SANGER: Inhibition of human SAS cell growth in a cell viability assay.

MKN-1 = experiment: cells; format: functional, cell-based, Homo sapiens; details: Homo sapiens, MKN-1;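 further: growth inhibition of human MKN1 cells, read out by a cell viability measurement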
Description: SANGER: Inhibition of human MKN1 cell growth in a cell viability assay.

LCLC-97TM1 = experiment: cells; format: functional, cell-based, Homo sapiens; details: Homo sapiens, LCLC-97TM1;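 further: cell viability assay measuring growth inhibition of human LCLC-97TM1 cells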
Description: SANGER: Inhibition of human LCLC-97TM1 cell growth in a cell viability assay.

KYSE-510 = experiment: cells; format: functional, cell-based, Homo sapiens; details: Homo sapiens, KYSE-510;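 further: cell viability readout used to measure how strongly growth of the cell line is suppressed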
Description: SANGER: Inhibition of human KYSE-510 cell growth in a cell viability assay.

BHT-101 = experiment: cells; format: functional, cell-based, Homo sapiens; details: Homo sapiens, BHT-101
Description: SANGER: Inhibition of human BHT-101 cell growth in a cell viability assay.

LC-1F = experiment: cells; format: functional, cell-based, Homo sapiens; details: Homo sapiens, LC-1F;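 further: growth inhibition of human LC-1F cells, read out with a cell viability assay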
Description: SANGER: Inhibition of human LC-1F cell growth in a cell viability assay.

NCI-H716 = experiment: cells; format: functional, cell-based, Homo sapiens; details: Homo sapiens, NCI-H716;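 further: growth inhibition of human NCI-H716 cells, measured by a cell viability assay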
Description: SANGER: Inhibition of human NCI-H716 cell growth in a cell viability assay.

LU-99A = experiment: cells; format: functional, cell-based, Homo sapiens; details: Homo sapiens, LU-99A;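 further: growth inhibition of LU-99A cells, read out with a cell viability assay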
Description: SANGER: Inhibition of human LU-99A cell growth in a cell viability assay.

NCCIT = experiment: SANGER: Inhibition of human NCCIT cell growth in a cell viability assay.; format: functional, cell-based; details: Homo sapiens, NCCIT
CMK = experiment: cells; format: functional, cell-based, Homo sapiens; details: Homo sapiens, CMK;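 further: growth inhibition of CMK cells, read out as cell viability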
Description: SANGER: Inhibition of human CMK cell growth in a cell viability assay.

IGROV-1 = experiment: cells; format: functional, cell-based, Homo sapiens; details: Homo sapiens, IGROV-1;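 further: reduction of IGROV-1 cell growth, read out with a viability assay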
Description: SANGER: Inhibition of human IGROV-1 cell growth in a cell viability assay.

C3A = experiment: cells; format: functional, cell-based, Homo sapiens; details: Homo sapiens, C3A;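 further: growth inhibition of C3A human cells, quantified with a cell viability readout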
Description: SANGER: Inhibition of human C3A cell growth in a cell viability assay.

T-24 = experiment: cells; format: functional, cell-based, Homo sapiens; details: Homo sapiens, T-24;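 further: growth inhibition of T-24 cells, read out with a cell viability assay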
Description: SANGER: Inhibition of human T-24 cell growth in a cell viability assay.

HCT-15 = experiment: cells; format: functional, cell-based, Homo sapiens; details: Homo sapiens, HCT-15;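 further: cell viability readout, IC50 reflecting suppression of HCT-15 cell growth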
Description: SANGER: Inhibition of human HCT-15 cell growth in a cell viability assay.

SW48 = experiment: cells; format: functional, cell-based, Homo sapiens; details: Homo sapiens, SW48;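 further: growth inhibition of SW48 cells, read out with a cell viability assay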
Description: SANGER: Inhibition of human SW48 cell growth in a cell viability assay.

NCI-H1417 = experiment: cells; format: functional, cell-based, Homo sapiens; details: Homo sapiens, NCI-H1417;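 further: human NCI-H1417 cells, growth inhibition determined with a cell viability readout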
Description: SANGER: Inhibition of human NCI-H1417 cell growth in a cell viability assay.

TE-15 = experiment: cells; format: functional, cell-based, Homo sapiens; details: Homo sapiens, TE-15;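 further: cell viability readout of growth inhibition in TE-15 cells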
Description: SANGER: Inhibition of human TE-15 cell growth in a cell viability assay.

HEC-1 = experiment: cells; format: functional, cell-based, Homo sapiens; details: Homo sapiens, HEC-1;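 further: growth inhibition of the cell line, read out with a cell viability assay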
Description: SANGER: Inhibition of human HEC-1 cell growth in a cell viability assay.

VM-CUB-1 = experiment: cells; format: functional, cell-based, Homo sapiens; details: Homo sapiens, VM-CUB-1;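 further: cell viability assay measuring growth inhibition of the human VM-CUB-1 cell line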
Description: SANGER: Inhibition of human VM-CUB-1 cell growth in a cell viability assay.

NCI-H358 = experiment: cells; format: functional, cell-based, Homo sapiens; details: Homo sapiens, NCI-H358;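 further: growth inhibition of NCI-H358 human cells, read out with a cell viability assay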
Description: SANGER: Inhibition of human NCI-H358 cell growth in a cell viability assay.

HuO-3N1 = experiment: cells; format: functional, cell-based, Homo sapiens; details: Homo sapiens, HuO-3N1;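 further: cell viability readout used to measure how strongly compounds suppress proliferation of human HuO-3N1 cells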
Description: SANGER: Inhibition of human HuO-3N1 cell growth in a cell viability assay.

NCI-H1623 = experiment: cells; format: functional, cell-based, Homo sapiens; details: Homo sapiens, NCI-H1623;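 further: cell viability assay used as the read-out for growth inhibition of NCI-H1623 cells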
Description: SANGER: Inhibition of human NCI-H1623 cell growth in a cell viability assay.

S-117 = experiment: cells; format: functional, cell-based, Homo sapiens; details: Homo sapiens, S-117
Description: SANGER: Inhibition of human S-117 cell growth in a cell viability assay.

NCI-H661 = experiment: cells; format: functional, cell-based, Homo sapiens; details: Homo sapiens, NCI-H661;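 further: cell viability assay read-out, IC50 being the concentration that inhibits growth of the cells by half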
Description: SANGER: Inhibition of human NCI-H661 cell growth in a cell viability assay.

CP50-MEL-B = experiment: cells; format: functional, cell-based, Homo sapiens; details: Homo sapiens, CP50-MEL-B;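 further: growth inhibition of the human cell line, measured with a cell viability read-out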
Description: SANGER: Inhibition of human CP50-MEL-B cell growth in a cell viability assay.

For `Nc1ccn([C@@H]2O[C@H](CO)[C@@H](O)C2(F)F)c(=O)n1` [GEMCITABINE], the IC50 (SU-DHL-1) was 62.7 nM, the IC50 (CAL-51) was 191 nM and the IC50 (LN-405) was over 1020 nM. For the same compound, the IC50 (Ca9-22) was 1.54 nM, the IC50 (CAL-39) was over 1020 nM and the IC50 (SW756) was 45.1 nM. For the same compound, the IC50 (HCC38) was 21.9 nM, the IC50 (PANC-03-27) was 3.51 nM and the IC50 (SW780) was over 1020 nM. It also gave an IC50 (NCI-H1993) of over 1020 nM, an IC50 (CaR-1) of 551 nM and an IC50 (NB1) of 488 nM. The IC50 (UACC-62) was 813 nM, the IC50 (639-V) was 193 nM and the IC50 (NCI-H64) was 151 nM. The IC50 (H4) was 2.18 nM, the IC50 (GMS-10) was over 1020 nM and the IC50 (HN) was 54.1 nM. For the same compound, the IC50 (HTC-C3) was 996 nM, the IC50 (CAL-62) was 1.22 nM and the IC50 (NCI-H1793) was 224 nM. For the same compound, the IC50 (SAS) was 20.5 nM, the IC50 (MKN-1) was 78.4 nM and the IC50 (LCLC-97TM1) was under 4 nM. For the same compound, the IC50 (KYSE-510) was under 4 nM, the IC50 (BHT-101) was 210 nM and the IC50 (LC-1F) was over 1020 nM. For the same compound, the IC50 (NCI-H716) was over 1020 nM, the IC50 (LU-99A) was over 1020 nM and the IC50 (NCCIT) was 176 nM. For the same compound, the IC50 (CMK) was under 4 nM, the IC50 (IGROV-1) was under 4 nM and the IC50 (C3A) was 8.84 nM. It also gave an IC50 (T-24) of over 1020 nM, an IC50 (HCT-15) of 82.2 nM and an IC50 (SW48) of 463 nM. It also gave an IC50 (NCI-H1417) of over 1020 nM, an IC50 (TE-15) of under 4 nM and an IC50 (HEC-1) of 124 nM. The IC50 (VM-CUB-1) was 34.7 nM, the IC50 (NCI-H358) was 7.16 nM and the IC50 (HuO-3N1) was over 1020 nM. For the same compound, the IC50 (NCI-H1623) was 187 nM, the IC50 (S-117) was over 1020 nM and the IC50 (NCI-H661) was 104 nM. For the same compound, the IC50 (CP50-MEL-B) was over 1020 nM.
In the case of `O=C(O)c1ccc(-c2c[nH]c3ncc(-c4ccccc4)cc23)cc1C1CCCC1` [GSK-650394], the IC50 (SU-DHL-1) is reported as over 16000 nM, the IC50 (CAL-51) is reported as 5360 nM and the IC50 (LN-405) is reported as over 16000 nM. It also gave an IC50 (Ca9-22) of over 16000 nM, an IC50 (CAL-39) of 9310 nM and an IC50 (SW756) of over 16000 nM. It also gave an IC50 (HCC38) of over 16000 nM, an IC50 (PANC-03-27) of over 16000 nM and an IC50 (SW780) of over 16000 nM. It also gave an IC50 (NCI-H1993) of over 16000 nM, an IC50 (CaR-1) of over 16000 nM and an IC50 (NB1) of over 16000 nM. For the same compound, the IC50 (UACC-62) was over 16000 nM, the IC50 (639-V) was 5170 nM and the IC50 (NCI-H64) was over 16000 nM. It also gave an IC50 (H4) of over 16000 nM, an IC50 (GMS-10) of over 16000 nM and an IC50 (HN) of over 16000 nM. The IC50 (HTC-C3) was 10700 nM, the IC50 (CAL-62) was 4770 nM and the IC50 (NCI-H1793) was over 16000 nM. For the same compound, the IC50 (SAS) was over 16000 nM, the IC50 (MKN-1) was 9190 nM and the IC50 (LCLC-97TM1) was 1370 nM. For the same compound, the IC50 (KYSE-510) was 2130 nM, the IC50 (BHT-101) was over 16000 nM and the IC50 (LC-1F) was over 16000 nM. For the same compound, the IC50 (NCI-H716) was over 16000 nM, the IC50 (LU-99A) was over 16000 nM and the IC50 (NCCIT) was over 16000 nM. The IC50 (CMK) was 8250 nM, the IC50 (IGROV-1) was 5290 nM and the IC50 (C3A) was over 16000 nM. The IC50 (T-24) was over 16000 nM, the IC50 (HCT-15) was 3630 nM and the IC50 (SW48) was over 16000 nM. It also gave an IC50 (NCI-H1417) of over 16000 nM, an IC50 (TE-15) of 2590 nM and an IC50 (HEC-1) of over 16000 nM. For the same compound, the IC50 (VM-CUB-1) was over 16000 nM, the IC50 (NCI-H358) was 6250 nM and the IC50 (HuO-3N1) was over 16000 nM. The IC50 (NCI-H1623) was over 16000 nM, the IC50 (S-117) was over 16000 nM and the IC50 (NCI-H661) was over 16000 nM. For the same compound, the IC50 (CP50-MEL-B) was over 16000 nM.
